Compound	melting point [°C]
C=CCc1cc(OC)c(OC)c(OC)c1OC	25
Cc1ccc(N=C(CNc2ccc(C)cc2)Nc2ccc(C)cc2)cc1	136
CCOP(=S)(OCC)SCCSCC	-25
COC(=O)N(C(=O)N1COC2(C(=O)OC)Cc3cc(Cl)ccc3C2=N1)c1ccc(OC(F)(F)F)cc1 (centres undefined)	88.1
Cc1nc2cc(-c3ccccc3)ccc2o1	63
O=C1C(Cl)=C(Nc2ccccc2)C(=O)c2ccccc21	215
CC(=O)Nc1ccc(C=CC(=O)c2ccccc2)cc1	179
CC12CCC(C(=Cc3ccccc3)C1=O)C2(C)C (centres undefined)	97
Oc1cccc(CN2CCCCC2)c1	140
CC(=O)SCC(C)C(=O)N1CCCC1C(=O)O (centres undefined)	76 to 82
CCCCCCCCCCCCCCCCCCOO	49.5
CC1=NC(=Cc2cccc3ccccc23)C(=O)O1	244
O=C(CN1CCNCC1)N1CCOCC1	63 to 65
CCOP(=O)(N=C1SCCS1)OCC	41
Cc1cnc(N)s1	97
Cc1c(C)c(C)c2c(c1C)CC2	139
Fc1c(F)c(Cl)c(F)c(F)c1S	47 to 52
CC1(C)N=C(N)C(C)(C)N1O	225 to 228
O=S(=O)(Cl)c1c(Cl)cccc1Cl	53
NC(=NO)c1cc(C(F)(F)F)cc(C(F)(F)F)c1	131 to 133
O=C1c2ccccc2C(=O)C1(O)C1(O)C(=O)c2ccccc2C1=O	252
Cc1cc2c(o1)-c1c(oc3c(Br)cc(Br)cc13)CCC2C (centres undefined)	121
O=C1CCCCCCCCC1O (centres undefined)	42
O=C(Cl)c1cc(-c2ccco2)on1	74 to 76
BrCc1ccc(-n2cccc2)cc1	86 to 91

Compound	melting point [°C]
CCCC(C)Cl (centres undefined)	-80
N#Cc1ccc(F)cc1Cl	64
Cc1cc(C)c(N)c([N+](=O)[O-])c1	67
O=[N+]([O-])c1ccc2c(c1)Cc1cc([N+](=O)[O-])ccc1-2	334
O=C1c2ccccc2C(=O)C1c1ccc(Cl)cc1	146
CSCCC(NC(C)=O)C(=O)O (racemic)	115
FC(F)(F)c1ccc2c(Cl)ccnc2c1	69 to 73
Cc1ccc(NC(=O)C=Cc2ccc(C=CC(=O)Nc3ccc(C)cc3)cc2)cc1	315
O=C(O)c1cccnc1Oc1ccccc1	181
O=C(NCCc1ccccn1)c1cc([N+](=O)[O-])cc([N+](=O)[O-])c1	120
COc1ccc(OC)c(C=CC(=O)O)c1	147 to 150
CCOC(=O)c1cc(C(=O)OCC)[nH]n1	51 to 55
CN1C(=O)CN(C(=O)OC(C)(C)C)[C@@H]1C(C)(C)C	66 to 70
Nc1cc(C(F)(F)F)ccc1N1CCCC1	33 to 35
NS(=O)(=O)c1cc(C(=O)c2ccc(O)cc2)cs1	192
CC(=O)c1cccc(N=C=O)c1	33 to 34
C[C@]12CC[C@H]3O[C@H]3[C@@H]1CC[C@@H]1[C@@H]2CC[C@]2(C)C(=O)CC[C@@H]12	158
CC(=NNC(N)=O)c1ccncc1	218
C=CCn1c(S)nnc1-c1ccc2ncccc2c1	211 to 214
Nc1ccc2c(c1)S(=O)(=O)C=C2	150
COc1ccc(C2(C)C=C(C)N=N2)cc1 (centres undefined)	70
O=C(O)c1cccc(Br)c1F	169
COc1ccc(C(N)=O)c(Cl)c1OC	165 to 168
CCCC(C)S (centres undefined)	-169
CCCCCCN1CC(C(=O)O)CC1=O (centres undefined)	42.5

Compound	melting point [°C]
O=C(Nc1cc(Cl)ccc1Cl)C(C(F)(F)F)C(F)(F)F	211
BrC12CC3CC(CC(C3)C1)C2	119
CCc1c(C)nc(N)nc1Cl	213 to 214
CN(C)c1ccc(/C=C2\C(=O)C3CCC(C)(C2=O)C3(C)C)cc1 (centres undefined)	152 to 153
O=C1N[C@H](Cc2ccccc2)CO1	87 to 90
O=C(O)CCCCC=C(c1ccccc1)c1cccnc1	114
Cc1cc(C)nc(Cl)n1	34 to 36
Cc1ccc(S(=O)(=O)OC2CCC3(C)C(CCC4C5CC(=O)CC5(C)CCC43)C2)cc1 (centres undefined)	165 to 166
COc1ccc(S(=O)(=O)Cl)cc1	40 to 42
CC1(C(=O)O)CCC(C(Br)C(Br)c2ccccc2)C1(C)C (centres undefined)	161
CC(C)(C)c1nn(-c2ccccc2)c(N)c1Cn1nnc2ccccc21	124
COC(=O)C=Cc1cccc(C=CC(=O)OC)c1	132
Cc1ccc(CCl)cc1[N+](=O)[O-]	46 to 50
COC1=C(OC)/C(=C/C=O)OC1=O	60 to 62
O=C(C=Cc1ccc(F)cc1)c1ccc(F)cc1	113 to 118
Nc1nn2c(C(F)(F)F)cc(-c3cccs3)nc2c1/N=N/c1ccc(C(=O)O)cc1	184
CCCOC(=O)C1=C(C)NC(=O)NC1c1cccc(OC)c1OC (centres undefined)	163
SCCCCS	-53.9
N#Cc1ccc(C=Cc2cccc(C=Cc3ccc(C#N)cc3[N+](=O)[O-])c2)c([N+](=O)[O-])c1	298
COC(=O)c1cc(N)cc(N)c1	133
[O-][N+](=Nc1ccc(N=Nc2ccccc2)cc1)c1ccc(N=Nc2ccc(N=Nc3ccccc3)cc2)cc1	253
COc1ccc(C=C(CC(=O)O)C(=O)O)cc1	186 to 188
O=Cc1ccc(-c2cccs2)cc1	67 to 68
COc1ccc(C=NNC(=O)c2ccncc2)cc1OC	189
CCOC(=O)c1c(C)n(O)c2ccc3nonc3c12	229 to 231

Compound	melting point [°C]
CC(=C(CCOC(=O)c1ccccc1)SSC(CCOC(=O)c1ccccc1)=C(C)N(C=O)Cc1cnc(C)nc1N)N(C=O)Cc1cnc(C)nc1N	146
CCOc1ccc(OC(=O)c2ccccc2)cc1	104
NC(=S)Nc1ccc(O)cc1	214
COc1c(C)cc(C(=O)O)cc1C	190 to 194
CCC(C)c1ccccc1OC(=O)NC (centres undefined)	31.5
Nc1nn2c(C(F)(F)F)cc(=O)[nH]c2c1/N=N/c1c(Br)cc(Br)cc1Br	92 to 94
CC(=O)OC1CCC2(C)C3CCC4=C(CCC4(C)C(C)OC(C)=O)C3CCC2(C)C1 (centres undefined)	117 to 119
Cc1nc(-c2ccccc2)sc1S(=O)(=O)Cl	76 to 78
COc1ccc(NC(=S)NN=Cc2c(-c3ccc(Cl)cc3)[nH]c3ccccc23)cc1	230 to 232
O=Cc1ccc(I)c(O)c1	131 to 132
Cc1ccc(-c2ccccc2)s1	47.5
O=C(O)C1=CCCc2ccccc21	125
O=C(CBr)c1cc2ccccc2o1	89 to 90
FC(F)(F)c1ccc(-c2nnn[nH]2)cc1	226
N#Cc1c(-c2cccc(O)c2)c(C#N)c(=O)n(N)c1N	323
CC(N)Cc1ccc(O)cc1 (centres undefined)	126
O=C1c2ccccc2C(=O)C1c1ccc(Br)cc1	138
c1ccc2c(c1)Cc1ccccc1S2	128
O=c1c(Cl)c(Cl)cnn1Cc1ccc(Cl)cc1	138 to 139
CC1CCC2C(C)(C)C3CC12CCC3(C)O (centres undefined)	86
C=CCc1cc2c(c(OC)c1OC)OCO2	29.5
CC12CCC(O)CC1CCC1C2C(O)CC2(C)C(c3ccc(=O)oc3)CCC12O (centres undefined)	254
CN(C)CCCC1(c2ccc(F)cc2)OCc2cc(C#N)ccc21 (centres undefined)	182
Cc1nc(C#N)cs1	58
COC(=O)c1cc2occc2[nH]1	139 to 140

Compound	melting point [°C]
CC1=NNC(=O)C1=NNc1ccc(Cl)cc1	215
N#Cc1c(F)c(F)c(C#N)c(F)c1F	198
CC1(c2ccccc2)CC(C(=NNC(N)=S)c2cc3ccccc3o2)C1 (centres undefined)	205 to 207
Cc1c(C=NO)c(=O)n(-c2ccccc2)n1C	216 to 219
CC(C)(C)OC(=O)N1CCC(N)CC1	46
CSC(=Nc1nnc(-c2ccc([N+](=O)[O-])cc2)s1)SC	> 250
Cc1nc(/C(C#N)=N/Nc2ccccc2[N+](=O)[O-])sc1/N=N/c1ccccc1	210
c1ccc2c(c1)nnn2C1CCCCC1	104
c1ccc2c(c1)cc1ccc3cc4ccccc4c4ccc2c1c34	282
OC(CCN1CCCCC1)(c1ccccc1)c1ccccc1	120
CC(C)(C)[C@@H]1NC(=O)CNC1=O	300
COc1cc2c(N)nc(N3CCN(C(=O)OCC(C)(C)O)CC3)nc2c(OC)c1OC	158
Nc1nc2ccccc2n1Cc1ccc(Cl)cc1	197 to 199
COc1ccc(C=O)cc1O	114
ICc1ccccc1	24.5
NC(CS(=O)(=O)c1ccc(Cl)cc1)=NO	202 to 205
COc1ccc(/N=N/c2sc(CC#N)nc2C)cc1	158
COC(=O)c1cc2ccccc2c(O)c1C(=O)OC	105
O=c1[nH]c2scc(-c3ccccc3)c2c(=O)n1-c1ccc(F)cc1	300 to 302
CCNC(=O)Nc1ncc([N+](=O)[O-])s1	228
CC(=O)OCC(=O)c1ccccc1	49
CSc1ncccc1C(=O)NC(CC(C)C)C(=O)O (centres undefined)	143 to 146
CC(=O)NCc1ccccc1C(c1ccc(C)o1)c1ccc(C)o1	65
COC(=O)C1=C(C)NC(C)=C([N+](=O)[O-])C1c1ccccc1C(F)(F)F (centres undefined)	166 to 172

— a melting point compilation (Tetko et al.)
